Results reported in ChEMBL document CHEMBL5360538, “Recent updates on 1,2,3-triazole-containing hybrids with in vivo therapeutic potential against cancers: A mini-review” (Eur J Med Chem, 2023).
Each block holds one molecule with its values, some of them ahead of it.

Columns and labels:
A549 [1] = test: Antiproliferative activity against human A549 cells assessed as inhibition of cell growth incubated for 48 hrs by MTT assay; assay type: functional, cell-based; conditions: A549, 48 h
NCI-H460 = test: Antiproliferative activity against human NCI-H460 cells assessed as inhibition of cell growth incubated for 48 hrs by MTT assay; assay type: functional, cell-based; conditions: NCI-H460, 48 h
A549 [2] = test: Antitumor activity against human A549 cells xenografted in nude mouse model assessed as inhibition of tumor growth at 1.0 mg/kg, sc administered every three or four days for 4 weeks relative to control; assay type: functional; conditions: A549, 672 h
Ehrlich [3] = test: Antitumor activity against mouse EAC cells implanted in Swiss albino mouse model assessed as tumor growth inhibition at 10 mg/kg, ip administered each day for 9 days and measured after 14 days relative to control; assay type: functional; conditions: 336 h, time 14 day
Ehrlich [4] = test: Antitumor activity against mouse EAC cells implanted in Swiss albino mouse model assessed as increase in life span at 10 mg/kg, ip administered each day for 9 days and measured after 14 days relative to control; assay type: functional; conditions: time 14 day
MCF7 [5] = test: Antiproliferative activity against human MCF7 cells assessed as inhibition of cell growth incubated for 48 hrs by MTT assay; assay type: functional, cell-based; conditions: MCF7, 48 h
LA7 [6] = test: Antiproliferative activity against rat LA7 cells assessed as inhibition of cell growth incubated for 48 hrs by MTT assay; assay type: functional, cell-based; conditions: LA7, 48 h
LA7 [7] = test: Antitumor activity against rat LA7 cells xenografted in mouse assessed as inhibition of tumor growth at 5 mg/kg, po administered daily for 21 days relative to control; assay type: functional; conditions: LA7, 504 h, time 21 day
MGC-803 = test: Antitumor activity against human MGC-803 cells xenografted in SCID mouse model assessed as inhibition of tumor growth at 50 mg/kg, po relative to control; assay type: functional
A549 [8] = test: Antiproliferative activity against human A549 cells assessed as inhibition of cell growth incubated for 72 hrs by MTT assay; assay type: functional, cell-based; conditions: A549, 72 h
HCT-116 = test: Antiproliferative activity against human HCT-116 cells assessed as inhibition of cell growth incubated for 72 hrs by MTT assay; assay type: functional, cell-based; conditions: HCT-116, 72 h
U2OS = test: Antiproliferative activity against human U2OS cells assessed as inhibition of cell growth incubated for 72 hrs by MTT assay; assay type: functional, cell-based
A549/TR = test: Antiproliferative activity against taxol-resistant human A549/Taxol cells assessed as inhibition of cell growth incubated for 72 hrs by MTT assay; assay type: functional, cell-based
[9] = Antiproliferative activity against cisplatin-resistant human A549/DDP cells assessed as inhibition of cell growth incubated for 72 hrs by MTT assay; assay type: functional, cell-based
A549 [10] = test: Antitumor activity against human A549 cells xenografted in Kunming mouse model assessed as inhibition of tumor growth at 20 mg/kg, iv administered twice daily for 2 weeks relative to control; assay type: functional; conditions: A549, 336 h
MDA-MB-231 [11] = test: Antiproliferative activity against human MDA-MB-231 cells assessed as inhibition of cell growth incubated for 48 hrs by MTT assay; assay type: functional, cell-based; conditions: MDA-MB-231, 48 h
Ehrlich [12] = test: Antitumor activity against mouse EAC cells implanted in Swiss albino mouse assessed as tumor growth inhibition at 5.0 mg/kg, ip administered alternate days for 10 days relative to control; assay type: functional; conditions: 240 h, time 10 day, read-out: TGI
KYSE-150 cell line [13] = test: Antiproliferative activity against human KYSE-150 cells assessed as inhibition of cell growth incubated for 72 hrs by MTT assay; assay type: functional, cell-based; conditions: KYSE-150, 72 h, pooled result: one value given for 5 cell lines, strains, targets or settings
KYSE-150 cell line [14] = test: Potency index, ratio of 5-fluorouracil IC50 to test compound IC50 for antiproliferative activity against human KYSE-150 cells assessed as inhibition of cell growth incubated for 72 hrs by MTT assay; assay type: functional
KYSE-270 = test: Potency index, ratio of 5-fluorouracil IC50 to test compound IC50 for antiproliferative activity against human KYSE-270 cells assessed as inhibition of cell growth incubated for 72 hrs by MTT assay; assay type: functional
TE-1 = test: Potency index, ratio of 5-fluorouracil IC50 to test compound IC50 for antiproliferative activity against human TE-1 cells assessed as inhibition of cell growth incubated for 72 hrs by MTT assay; assay type: functional
KYSE-510 = test: Potency index, ratio of 5-fluorouracil IC50 to test compound IC50 for antiproliferative activity against human KYSE-510 cells assessed as inhibition of cell growth incubated for 72 hrs by MTT assay; assay type: functional
ECa-109 cell line [15] = test: Potency index, ratio of 5-fluorouracil IC50 to test compound IC50 for antiproliferative activity against human EC109 cells assessed as inhibition of cell growth incubated for 72 hrs by MTT assay; assay type: functional
ECa-109 cell line [16] = test: Antitumor activity against human EC109 cells xenografted in BALB/c nude mouse model assessed as inhibition of tumor growth at 60 mg/kg, po relative to control; assay type: functional
MCF7 [17] = test: Antiproliferative activity against drug-sensitive human MCF7 cells assessed as inhibition of cell growth by MTT assay; assay type: functional, cell-based
MDA-MB-231 [18] = test: Antiproliferative activity against drug-sensitive human MDA-MB-231 cells assessed as inhibition of cell growth by MTT assay; assay type: functional, cell-based
BT-474 = test: Antiproliferative activity against drug-sensitive human BT-474 cells assessed as inhibition of cell growth by MTT assay; assay type: functional, cell-based
SK-BR-3 = test: Antiproliferative activity against drug-sensitive human SK-BR-3 cells assessed as inhibition of cell growth by MTT assay; assay type: functional, cell-based
[19] = Antiproliferative activity against human Tamoxifen-resistant MCF7 cells assessed as inhibition of cell growth by MTT assay; assay type: functional, cell-based
[20] = Antiproliferative activity against human Trastuzumab-resistant BT-474 cells assessed as inhibition of cell growth by MTT assay; assay type: functional, cell-based, Trastuzumab-resistant BT-474 cell
[21] = Elimination half life in Albino mouse plasma at 1.0 mg/kg, iv; assay type: ADME, organism-based; conditions: read-out: beta t1/2 (converted)
[22] = Plasma clearance in Albino mouse at 1.0 mg/kg, iv; assay type: ADME, organism-based
[23] = AUC(0 to t) in Albino mouse at 1.0 mg/kg, iv; assay type: ADME, organism-based; design: dose 1 mg/kg, route iv; conditions: in vivo
MCF7 [24] = test: Antitumor activity against human MCF7 cells xenografted in mouse assessed as tumor growth inhibition by measuring T/C ratio at 25 mg/kg, iv; assay type: functional
OC-314 = test: Antiproliferative activity against human OC-314 cells assessed as reduction in cell viability by MTT assay; assay type: functional, cell-based
OVCAR-8 [25] = test: Antiproliferative activity against human OVCAR-8 cells assessed as reduction in cell viability by MTT assay; assay type: functional, cell-based
SK-OV-3 = test: Antiproliferative activity against human SK-OV-3 cells assessed as reduction in cell viability by MTT assay; assay type: functional, cell-based
Caov-3 cell line = test: Antiproliferative activity against human Caov-3 cells assessed as reduction in cell viability by MTT assay; assay type: functional, cell-based
OVCAR-8 [26] = test: Antitumor activity against human OVCAR-8 cells xenografted in nude mouse assessed as inhibition of tumor growth at 100 mg/kg, IG administered daily for 21 days relative to control; assay type: functional; conditions: OVCAR-8, po, 504 h, time 21 day
NCI-H1650 = test: Antiproliferative activity against drug-sensitive human NCI-H1650 cells assessed as inhibition of cell growth incubated for 48 hrs by MTT assay; assay type: functional, cell-based; conditions: NCI-H1650, 48 h, pooled result: one value given for 9 cell lines, strains, targets or settings
KYSE-450 = test: Antitumor activity against human KYSE-450 cells xenografted in nu/nu nude mouse model assessed as inhibition of tumor growth at 25 mg/kg, ip administered every day for 15 days relative to control; assay type: functional; conditions: KYSE-450, 360 h, time 15 day
A549 [27] = test: Antiproliferative activity against human A549 cells assessed as inhibition of cell growth incubated for 24 hrs by MTT assay; assay type: functional, cell-based; conditions: A549, 24 h
animal or person = assay type: functional; conditions: Mus musculus, Lewis lung carcinoma, 480 h, route ip, time 20 day
[28] = Antitumor activity against mouse Lewis lung carcinoma cells implanted in C57BL/6J mouse model assessed as inhibition of tumor growth at 5.0 mg/kg, ip administered alternate days for 20 days in presence of 5.0 mg/kg gefitinib relative to control; assay type: functional; conditions: 480 h, time 20 day

SMILES: COc1ccc2c(c1)OCC(=O)N2Cc1cn(Cc2ccccc2)nn1
IC50 (A549 [1]): < 8000 nM
IC50 (NCI-H460): < 8000 nM
inhibition in vivo at 1 mg/kg (A549 [2]): 60%

SMILES: COc1ccc(-c2ccc3c(c2)OCC(=O)N3Cc2cn(-c3cc(Cl)cc(Cl)c3)nn2)cc1
inhibition in vivo at 10 mg/kg (Ehrlich [3]): 54%
Activity (Ehrlich [4]): 68.94%

SMILES: COc1ccc(-n2cc(CN3c4ccccc4Sc4ccccc43)nn2)c([N+](=O)[O-])c1
inhibition in vivo at 50 mg/kg (MGC-803): 70.1%

SMILES: COc1cnc(Cn2cc(CNC(=O)c3c(F)c(F)c(F)c(F)c3F)nn2)c(OC)c1
IC50 (KYSE-150 cell line [13]): 830 nM
Ratio IC50 (KYSE-150 cell line [14]): 3.1
Ratio IC50 (KYSE-270): 3.1
Ratio IC50 (TE-1): 3.1
Ratio IC50 (KYSE-510): 3.1
Ratio IC50 (ECa-109 cell line [15]): 3.1
inhibition in vivo at 60 mg/kg (ECa-109 cell line [16]): 60%

SMILES: FC(F)(F)c1ccc(-n2cc(-c3cccc(Nc4ncnc5cc6c(cc45)OCCOCCOCCO6)c3)nn2)cc1
IC50 (NCI-H1650): 3260 nM
inhibition in vivo at 25 mg/kg (KYSE-450): 25%

SMILES: COc1ccc(-c2cn(CC3(C)C=Cc4cc(N)ccc4O3)nn2)cc1 (centres undefined)
IC50 (A549 [27]): 2 nM
inhibition in vivo at 5 mg/kg (animal or person): 50%
inhibition in vivo at 5 mg/kg [28]: 80%

Continued, in another order:

IC50 (MCF7 [5]): 2100 nM
SMILES: O=C1/C(=C/c2ccccc2F)CN(Cc2cn(Cc3ccc(F)cc3)nn2)C/C1=C\c1ccccc1F
IC50 (LA7 [6]): 3100 nM
inhibition in vivo at 5 mg/kg (LA7 [7]): 80%

IC50 (A549 [8]): 280 nM
IC50 (HCT-116): 280 nM
IC50 (U2OS): 280 nM
IC50 (A549/TR): 280 nM
SMILES: CC(C)=CC[C@]12OC(C)(C)C3C[C@H](C=C4C(=O)c5c(OCc6cn(CCN7CCOCC7)nn6)cccc5OC431)C2=O
IC50 [9]: 280 nM
inhibition in vivo at 20 mg/kg (A549 [10]): 71.3%

IC50 (MDA-MB-231 [11]): 77 nM
SMILES: NS(=O)(=O)NCCNC(=O)c1n[nH]nc1-c1ccc(F)c(F)c1
inhibition in vivo at 5 mg/kg (Ehrlich [12]): > 80%

IC50 (MCF7 [17]): 153 nM
IC50 (MDA-MB-231 [18]): 153 nM
IC50 (BT-474): 153 nM
IC50 (SK-BR-3): 153 nM
half-life [21]: 8.1 h
clearance [22]: 15.4 mL/min/kg
AUC(0-t) [23]: 232 ng·h/mL
SMILES: O=C1CCCC2=C1C(c1cn(-c3ccc(Cl)cc3)nn1)C1=C(CCCC1=O)N2
IC50 [19]: 153 nM
IC50 [20]: 153 nM
T/C (MCF7 [24]): 0.2

IC50 (OVCAR-8 [25]): 540 nM
IC50 (SK-OV-3): 540 nM
SMILES: O=S(=O)(NCc1cn(Cc2cccc(Oc3ccccc3)c2)nn1)c1ccc(F)cc1
IC50 (OC-314): 540 nM
IC50 (Caov-3 cell line): 540 nM
inhibition in vivo at 100 mg/kg (OVCAR-8 [26]): 61.8%
